Measured values taken from paper PMC3747139 (PLoS ONE, 2013).

Key:
B16F10 melanoma cells = experiment: Preclinical study: survival of tumor-induced mice; type: in vivo, C57BL6/J mice; details: 200 µM L1, 125 µM L2, 50 µM L3 on alternate days for 2 weeks
Protocol: C57BL6/J mice were used from the animal house facility located at CCMB (Hyderabad, India). All animal experimental studies were carried out in strict accordance with the recommendations in the guide for the care and use of laboratory animals of Centre for Cellular and Molecular Biology (CCMB). All the animal experimental protocols were approved by the Institutional Animal Ethical Committee (IAEC) of Centre for Cellular and Molecular Biology (CCMB with Permit number: CPCSEA 20/1999, Ministry of Environment and Forest, Government of India).The protocol was approved by the Institutional Animal Ethical Committee (IAEC) of CCMB (Protocol number: IAEC 16/2012). All the surgery was performed under sodium pentobarbital anaesthesia, and all efforts were made to minimize suffering. C57BL6/J mice, 6–8 weeks old, were subcutaneously injected with 2×10^5 B16F10 melanoma cells, in the […] region. After the tumor attained a size of 500–1000 mm^3 (≈9 days following cancer cell implantation), mice were grouped and treated as follows.
Group (i) was treated with vehicle control (4 mice), group (ii) with 200 µM of L1 (4 mice), group (iii) with 125 µM of L2 (4 mice) and group (iv) with 50 µM of L3 (4 mice). These experiments were repeated thrice and mean values were considered. Size of tumor was measured every day at a fixed time. The tumor sizes were calculated using the formula (0.5 ab^2), where ‘a’ was the largest dimension and ‘b’ was the smallest dimension of the tumor. The experiment was terminated when the average tumor volume of the control/treated group was 10000–12000 mm^3.

B16F10 = experiment: Cell count assay (trypan blue); type: cell-based, human; details: for Number of viable cells after 24 h of ligand treatment: B16F10, 24 h; for Number of viable cells after 48 h of ligand treatment: B16F10, 48 h
Protocol: (§1) Normal and tumor cell lines were seeded at 20000–40000 cells/cm^2 with 0.2 mL/cm^2 media and incubated for 48 h at 37°C, 6% CO2, 95% relative humidity. […] After 24 h and 48 h of incubation, cells were washed with 300 µl PBS or 0.02% EDTA, trypsinized, followed by harvesting at 37°C. 200 µl cell suspension was transferred into 1.5 ml microcentrifuge tube. To the cell suspension, 300 µl PBS followed by 500 µl of 0.4% trypan blue solution was added. To get the homogenised solution, the microcentrifuge tube was gently tapped for 5 min, 20 µl of cell suspension was loaded in to a chamber of the haemocytometer.

MCF-7 = experiment: Cell count assay (trypan blue); type: cell-based, human; details: for Number of viable cells after 24 h of ligand treatment: MCF-7, 24 h; for Number of viable cells after 48 h of ligand treatment: MCF-7, 48 h;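 for Number of viable cells after 48 h of ligand treatment: each ligand tested at its own IC50 concentration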
Protocol: as §1

A549 = experiment: Cell count assay (trypan blue); type: cell-based, human; details: for Number of viable cells after 24 h of ligand treatment: A549, 24 h; for Number of viable cells after 48 h of ligand treatment: A549, 48 h;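 for Number of viable cells after 24 h of ligand treatment: each ligand tested at its own IC50 concentration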
Protocol: as §1

telomerase = tested on: telomerase; parameters: method as in PMID 10741725; details: cited from earlier work
[1] = tested on: HQF DNA (human quadruplex forming DNA), d(TTAGGG)4 (DNA, G4) TTAGGGTTAGGGTTAGGGTTAGGG; experiment: SYBR Green fluorescence melting; details: 1 µM ligand, 5 µM DNA, melting buffer not stated
[2] = tested on: telomerase reverse transcriptase (TERT); experiment: Western blot of telomerase expression in tumor tissues; type: in vivo, C57BL6/J mice; details: tumor tissue of tumor-induced mice, 216 h of treatment
Protocol: Western blot analysis was carried out to study the expression of telomerase in ligand treated as well as untreated tissues of tumor-induced mice. Total proteins were extracted from the tumor tissues into solubilisation buffer (7 M urea, 2 M thiourea, 4% CHAPS, 18 mM Tris–HCl, 14 mM Trizma base, 2 tablets EDTA protease inhibitor, 0.2% Triton-X, 50 mM DTT) following homogenization and sonication. Extracted proteins were quantified against BSA standard using an Amido black assay method. 40 µg of total protein obtained from different time points (48 h, 72 h and 216 h) were electrophoresed on a 10% SDS-PAGE and transferred onto a PVDF membrane using wet-transfer method. Immunoblot analysis of the telomerase reverse transcriptase (TERT) expression was performed using anti-TERT antibody (Pierce, Thermo Scientific) as primary antibody and anti-rabbit HP conjugated secondary antibodies (Pierce, Thermo Scientific). The immuno- blots were scanned using the ECL detection method to estimate the telomerase expression levels in the tissues of tumor-induced mice. The endogenous β-actin expression level was considered as control.

QF DNA = experiment: Stop assay (inhibition of in vitro DNA synthesis) with QF DNA; type: biochemical; details: for ligand concentration range of complete / maximum inhibition of DNA synthesis: 5 µM QF DNA; for percentage of DNA synthesis inhibition with QF DNA: at the respective half maximal inhibitory concentration; for Ki: competitive inhibition against dNTPs, Taq polymerase, read-out: inhibition constant (Ki), Cheng-Prusoff equation
Protocol: (§2) The G-quadruplex structure forming region of QF oligonucleotide is shown in bold letters.
(§3) To the PCR reaction mixture (25 µl) containing 10 mM Tris-HCl, pH 8.3, with 50 mM KCl, 1.5 mM Mg(OAc)2, 5 µM of each oligonucleotide, 1 mM dNTPs, 5 units of Taq polymerase, L1, L2, L3 were added at various concentrations (50 µM, 100 µM, 150 µM, 200 µM), and PCR reactions were performed. PCR mixture without any ligand was considered as control. The primers were 5′ end-labelled with [γ-^32P] ATP using 1 µl of polynucleotide kinase and 5 µl of 10× kinase buffer and the contents were incubated at 37°C for 5 min. Stop assay was performed using an ABI thermal cycler. Initial denaturation was done at 94°C for 3 min, followed by 20 repeated cycles each having 94°C for 30 sec, 58°C for 30 sec, and 72°C for 30 sec. After PCR, 5 µl of the amplified product was loaded on a 12% non-denaturing polyacrylamide gel with 1×TBE. The in vitro DNA synthetic band intensity was measured using Bio Rad Gel Doc XR+system (USA). The band intensity of the PCR product obtained with no ligand was taken as control for all the quadruplex forming DNA samples (QF DNA). Percentage of DNA synthesis inhibition was calculated using equation 1, whereas, inhibition constant, Ki (using Cheng-Prusoff equation) for each ligand was calculated by using equation 2. [drawing 2] (1)

NQF DNA = experiment: Stop assay (inhibition of in vitro DNA synthesis) with NQF DNA; type: biochemical; details: 5 µM NQF DNA
Protocol: as §2, §3

Cc1cn([C@H]2C[C@H](N=[N+]=[N-])[C@@H](CO)O2)c(=O)[nH]c1=O [Ligand L1, 1-(4-azido 5-(hydroxylmethyl)tetrahydrofuran-2-yl)-5-methyl pyrimidi-ne-2,4(1H,3H)-dione, reference compound]
Number of days survived (B16F10 melanoma cells): 25 (±5) days | survival period of treated mice (B16F10 melanoma cells): ~4 weeks | Number of viable cells after 24 h of ligand treatment (B16F10): ++ (Viable cells in the range of 50%–60%) | Number of viable cells after 48 h of ligand treatment (B16F10): +++ (Viable cells which are equal or less than 30%) | Number of viable cells after 24 h of ligand treatment (MCF-7): + (Viable cells in the range of 80%–90%) | Number of viable cells after 48 h of ligand treatment (MCF-7): ++ (Viable cells in the range of 50%–60%) | Number of viable cells after 24 h of ligand treatment (A549): + (Viable cells in the range of 80%–90%) | Number of viable cells after 48 h of ligand treatment (A549): ++ (Viable cells in the range of 50%–60%) | concentration reported to inhibit telomerase (telomerase): around 200 µM | ΔTm ([1]; derived from two Tm (28 and 27 °C)): 1 °C | percentage of reduction of telomerase expression [2]: 80% | ligand concentration range of complete / maximum inhibition of DNA synthesis (QF DNA): 150 to 200 µM | percentage of DNA synthesis inhibition with QF DNA (QF DNA): 84% | Ki (QF DNA): 2940 nM

Cc1cn([C@H]2C[C@H](n3cc(-c4ccccc4)nn3)[C@@H](CO)O2)c(=O)[nH]c1=O [Ligand L2]
Number of days survived (B16F10 melanoma cells): 31 (±4) days | survival period of treated mice (B16F10 melanoma cells): ~5 weeks | Number of viable cells after 24 h of ligand treatment (B16F10): ++ (Viable cells in the range of 50%–60%) | Number of viable cells after 48 h of ligand treatment (B16F10): +++ (Viable cells which are equal or less than 30%) | Number of viable cells after 24 h of ligand treatment (MCF-7): + (Viable cells in the range of 80%–90%) | Number of viable cells after 48 h of ligand treatment (MCF-7): ++ (Viable cells in the range of 50%–60%) | Number of viable cells after 24 h of ligand treatment (A549): ++/++ (Viable cells in the range of 50%–60%) | Number of viable cells after 48 h of ligand treatment (A549): ++/++ (Viable cells in the range of 50%–60%) | ΔTm ([1]; derived from two Tm (42 and 27 °C)): 15 °C | percentage of reduction of telomerase expression [2]: 88% | ligand concentration range of complete / maximum inhibition of DNA synthesis (QF DNA): 150 to 200 µM | percentage of DNA synthesis inhibition with QF DNA (QF DNA): 91% | Ki (QF DNA): 1840 nM

Cc1cn([C@H]2C[C@H](n3cc(-c4ccc(Cl)cc4)nn3)[C@@H](CO)O2)c(=O)[nH]c1=O [Ligand L3, 1-(4-(4-(4-chlorophenly)-1H-1,2,3-triazole-1-yl)-5-(hydroxymethyl)tetrahydrofuran-2-yl)-5-methylpyrimidine-2,3(1H,3H)-dione]
Number of days survived (B16F10 melanoma cells): 40 (±6) days | survival period of treated mice (B16F10 melanoma cells): about 6 weeks | Number of viable cells after 24 h of ligand treatment (B16F10): ++ (Viable cells in the range of 50%–60%) | Number of viable cells after 48 h of ligand treatment (B16F10): +++ (Viable cells which are equal or less than 30%) | Number of viable cells after 24 h of ligand treatment (MCF-7): ++/++ (Viable cells in the range of 50%–60%) | Number of viable cells after 48 h of ligand treatment (MCF-7): ++/++ (Viable cells in the range of 50%–60%) | Number of viable cells after 24 h of ligand treatment (A549): ++ (Viable cells in the range of 50%–60%) | Number of viable cells after 48 h of ligand treatment (A549): +++ (Viable cells which are equal or less than 30%) | inhibition of in vitro DNA synthesis with NQF DNA (NQF DNA): around 33% | ΔTm ([1]; derived from two Tm (52 and 27 °C)): 25 °C | percentage of reduction of telomerase expression [2]: 95% | ligand concentration range of complete / maximum inhibition of DNA synthesis (QF DNA): 50 to 100 µM | percentage of DNA synthesis inhibition with QF DNA (QF DNA): 94% | Ki (QF DNA): 735 nM
